Measured values as given in patent US20250197461A1, “Insect-derived short peptide for improving abscisic acid (ABA) content in cruciferous plant” (Gannan Normal University, priority 2023, published 2025).

System: Arabidopsis thaliana leaves
Test: Non-targeted metabolomics of Arabidopsis thaliana leaves treated with short peptide
Type: in vivo
Settings: 0.01 mg/mL, vs GFP control
Experimental: In this experiment, the materials used for metabonomics analysis and phytohormone detection are Arabidopsis thaliana samples with consistent growth status. Synthetic short peptide of GSS1-PI with the corresponding concentration and mass was weighed and dissolved in 0.1% DMSO to obtain a 0.01 mg/mL treatment solution. A wild-type Arabidopsis thaliana plant of about four weeks old was taken, two cotyledons were collected and mechanically damaged to obtain three small holes, 2 μL of the GSS1-PI solution was added dropwise into each small hole, while GFP solution was used as the control group. After 24 h and 48 h of treatment, approximately 0.2 g of Arabidopsis thaliana leaves were collected, and each treatment had three biological replicates. The leaves were quickly placed in liquid nitrogen and stored in a −80° C. ultra-low temperature refrigerator for subsequent phytohormone group detection and metabolomic analysis.
100 mg of Arabidopsis thaliana leaves was taken and added with liquid nitrogen for full grinding, and the fine powder was put in a 1.5 mL centrifuge tube. 500 μL of 80% methanol aqueous solution was pipette in the centrifuge tube and subjected to vortex oscillation to mix well, and the centrifuge tube was put on ice for 5 min. After standing, the mixture was centrifuged at 15000 g at 4° C. for 20 min. Then, 200 μL of supernatant was pipette and diluted with appropriate amount of mass spectrometry water until the methanol content in the solution was 53%. The dilution was centrifuged again for 20 min, the supernatant was retained and loaded for LC-MS analysis of the sample.
Related instruments were set as follows: chromatographic column temperature: 40° C.; injection flow rate: 0.2 mL/min; Positive ion mode: 0.1% formic acid for mobile phase A; mass grade methanol for mobile phase B; Negative ion mode: 5 mM ammonium acetate for mobile phase A, and mass grade methanol for mobile phase B.
The scanning range was m/z 100-1500: the setting of ESI signal source was as follows: spray voltage: […]; sheath gas flow rate: 35 psi; auxiliary gas flow rate: 10 L/min; ion transport tube temperature: 320° C.; iontophoresis RF frequency: 60; auxiliary heater temperature: 350° C.; MS/MS secondary scanning is set to dependency scanning data.
After the experiment was completed, the relevant data files were imported into the database search software for analysis and processing, and the residence time, mass-to-charge ratio and other related parameters of each metabolite were simply screened and checked. In order to identify more accurately, the different samples were peak-aligned, with the retention time deviation of 0.2 min and mass deviation of 5 ppm. Then peak extraction and peak area quantification were carried out to integrate the target ions, and then ion peaks were predicted by molecular formula and compared with local data. In order to remove the interference of background ions, the original quantitative results were standardized and blank sample controls were added. Finally, the relative quantitative results of the relevant metabolites were obtained and identified.
Multivariate statistical analysis of metabolite data included two parts, component analysis (PCA) and partial least squares discriminant analysis (PLS-DA). The data was converted by metaX, a metabonomics processing software, to get the VIP value of each metabolite. In univariate analysis, the statistical significance (P value) between the two groups of metabolites was analyzed by t test, and the fold change of metabolites between the two groups, that is, FC value, was calculated. The default screening criteria for differential metabolites were VIP>1, P value<0.05 and FC≥2 or FC≤0.5.

## PDYKQKLRDSKAWESLETIGIPLDADVM (insect-derived short peptide) [GSS1-PI]
24 h
  log2FC 2-Phenylacetamide: 0.608
  log2FC 3,4,5-Trimethoxycinnamic acid: −1.348
  log2FC (−)-chimonanthine: 0.731
  log2FC Coumarin: −1.039
  log2FC Cytosine: 1.096
  log2FC Eriodictyol: 0.908
  log2FC Gracillin: −1.823
  log2FC Hesperidin: 0.708
  log2FC Hippuric acid: −0.465
  log2FC L-arginine: −0.600
  log2FC Madecassic acid: 1.041
  log2FC Methyl dihydrojasmonate: 0.784
  log2FC N-Methyltryptamine: −0.651
  log2FC Ptaquiloside: −1.418
  log2FC Quercetin 3-O-sophoroside: −2.173
  log2FC Rhoifolin: 0.699
  log2FC Spectinomycin: 0.579
  log2FC Tiglic acid: −0.663
  log2FC cis-2-Decenoic acid: −0.599
  log2FC α-Linolenoyl ethanolamide: 1.586
48 h
  log2FC 2′-O-Methyladenosine: 1.543
  log2FC 3,4,5-Trimethoxycinnamic acid: −2.132
  log2FC 5α-Dihydrotestosterone glucuronide: −1.186
  log2FC 5′-Deoxy-5′-(Methylthio)Adenosine: 1.330
  log2FC 20-Hydroxyecdysone: −1.153
  log2FC Allantoic acid: −1.815
  log2FC Alpha-Mangostin: 1.363
  log2FC Benzamide: 1.564
  log2FC Camelliaside A: 1.640
  log2FC Cimifugin: 1.872
  log2FC Coumarin: −1.930
  log2FC Cucurbitacin E: 1.309
  log2FC DL-Methionine: 1.393
  log2FC DL-Panthenol: 1.615
  log2FC N-(p-Coumaroyl) serotonin: −1.010
  log2FC Neopterin: 1.709
  log2FC Saikosaponin B4: −1.655
  log2FC Sclareolide: −2.003
  log2FC Scopoletin: −1.518
  log2FC Sinapinic acid: −1.203
